14 compounds from PubChem BioAssay (NCI) can be followed below.

Each structure is given as a SMILES string.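 All cell lines were grown in 96-well plates and treated with compound for 48 hours. The concentration for 50% growth inhibition is given as GI50. TGI: total growth inhibition.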

Some test systems named below: BT-549 breast; EKVX NSCLC; KM12 colon; M14 melanoma; MALME-3M melanoma; MDA-MB-435; NCI-H226 lung; NCI/ADR-RES ovarian; 786-0 renal; SF-539 CNS.
Common to all, as to assay: inhibition of tumour cell growth, NCI panel, 48 h

Take `O=C1/C(=C/c2ccc(Cl)cc2)CCCc2ccc(F)cc21`: the GI50 in the assay with BT-549 breast was 39.8 µM; in the assay on EKVX NSCLC, 27.9 µM; in the assay with KM12 colon, 12.9 µM; in the assay on M14 melanoma it was 11.6 µM; with MALME-3M melanoma it was 6.45 µM; in the assay on MDA-MB-435 it was 20.3 µM. Moreover, the GI50 was 16.8 µM in the assay with NCI-H226 lung and 26.6 µM in the assay on NCI/ADR-RES ovarian. For the same compound, the TGI with BT-549 breast is more than 100 µM; in the assay with EKVX NSCLC, 61 µM; in the assay on KM12 colon, 34.2 µM; with M14 melanoma, 39.2 µM; with MALME-3M melanoma, 31.8 µM; with MDA-MB-435 it was more than 100 µM. For the same compound, the TGI in the assay on NCI-H226 lung was 41.8 µM; in the assay on NCI/ADR-RES ovarian, 73.5 µM.
`CC(=O)C1(O)CCC2(O)C3(O)CC=C4CC(O)CCC4(C)C3CC(OC(=O)c3ccc(O)cc3)C12C` (centres undefined): the TGI in the assay with 786-0 renal, with BT-549 breast, in the assay on EKVX NSCLC, in the assay with KM12 colon, in the assay with M14 melanoma and in the assay with MDA-MB-435 was more than 100 µM throughout. Also, the TGI in the assay with NCI-H226 lung, in the assay on NCI/ADR-RES ovarian and in the assay on SF-539 CNS was more than 100 µM in each case.
With `Clc1ccc(OCc2nnc(COc3ccc(OCc4nnc(COc5ccc(Cl)cc5Cl)o4)c(Cl)c3)o2)c(Cl)c1`, the TGI was more than 100 µM in the assay on 786-0 renal; more than 100 µM with BT-549 breast; 45.2 µM in the assay with EKVX NSCLC; more than 100 µM with KM12 colon; more than 100 µM with M14 melanoma; more than 100 µM in the assay with MALME-3M melanoma. Besides, the TGI in the assay on MDA-MB-435 is more than 100 µM; with NCI-H226 lung, more than 100 µM; with NCI/ADR-RES ovarian, 66.7 µM.
For the compound `COCC#C[C@@]1(O)CCCCC1CC(OC)OC` (some centres undefined), the TGI in the assay on 786-0 renal, in the assay on EKVX NSCLC, in the assay on KM12 colon, in the assay with M14 melanoma, in the assay on MALME-3M melanoma and in the assay on MDA-MB-435 was more than 100 µM each time. The TGI with NCI-H226 lung and in the assay on NCI/ADR-RES ovarian was more than 100 µM in each case.
As for `O=c1ccn(-c2ccccn2)c(=O)n1-c1ccccn1`, the TGI in the assay with 786-0 renal, in the assay on EKVX NSCLC, in the assay with KM12 colon, in the assay on M14 melanoma, in the assay on MALME-3M melanoma and with MDA-MB-435 was more than 100 µM throughout. Further, the TGI in the assay on NCI-H226 lung, in the assay with NCI/ADR-RES ovarian and in the assay with SF-539 CNS was more than 100 µM in each case.
Regarding `O=C1NC(=S)NC(=O)C1C(c1ccc(Cl)cc1)C1C(=O)NC(=S)NC1=O`, the TGI in the assay with 786-0 renal, with BT-549 breast, with EKVX NSCLC, with KM12 colon, in the assay with M14 melanoma and in the assay with MALME-3M melanoma was more than 100 µM each time. The TGI with MDA-MB-435, in the assay with NCI-H226 lung and with NCI/ADR-RES ovarian was more than 100 µM throughout.
`COC(=O)C1=C(C(=O)OC)SC(=C2SC3=C(SC(=C4SCCS4)S3)S2)S1`: the TGI in the assay with 786-0 renal, in the assay on BT-549 breast, in the assay with EKVX NSCLC, with KM12 colon, in the assay on M14 melanoma and with MALME-3M melanoma was more than 100 µM throughout. The TGI with MDA-MB-435, in the assay on NCI-H226 lung and in the assay with NCI/ADR-RES ovarian was more than 100 µM each time.
For `c1c(N2CCOCC2)ssc1=[N+]1CCOCC1`, the TGI in the assay with 786-0 renal, with EKVX NSCLC, in the assay on KM12 colon, with M14 melanoma, with MALME-3M melanoma and with NCI-H226 lung was more than 100 µM in each case. This compound also yielded a TGI in the assay on SF-539 CNS of more than 100 µM.
`CCCO/N=[N+](\[O-])N(CC)CC`: the TGI in the assay on EKVX NSCLC, with KM12 colon, with M14 melanoma, with NCI-H226 lung and in the assay on SF-539 CNS was more than 100 µM each time.
As to `Cc1cnc2[nH]c(-c3cccc(F)c3)cc(=O)c2c1`, the TGI in the assay with 786-0 renal is more than 83.6 µM; with EKVX NSCLC it was more than 100 µM; in the assay with KM12 colon, 1.7 µM; in the assay with MALME-3M melanoma, more than 100 µM; with MDA-MB-435 it was 0.0228 µM; with NCI-H226 lung it was 4.43 µM. Also, the TGI in the assay with NCI/ADR-RES ovarian worked out at 0.0395 µM; with SF-539 CNS, 0.263 µM.
Turning to `Nc1nncc2[nH]cnc12`, the TGI in the assay on 786-0 renal was more than 100 µM; in the assay on BT-549 breast it was 77.4 µM; in the assay on EKVX NSCLC it was more than 100 µM; in the assay on KM12 colon, more than 100 µM; with M14 melanoma, more than 100 µM; in the assay on MDA-MB-435 it was more than 100 µM. Besides, the TGI in the assay on NCI-H226 lung, in the assay on NCI/ADR-RES ovarian and in the assay on SF-539 CNS was more than 100 µM throughout.
On to `CCOC(=O)Cn1nnc2cc(Nc3c(C)[n+]([O-])c4cc(F)c(OCC)cc4[n+]3[O-])ccc21`, for which the TGI with 786-0 renal, in the assay on EKVX NSCLC, in the assay on KM12 colon, with M14 melanoma, with MDA-MB-435 and in the assay on NCI-H226 lung was more than 100 µM each time. In addition, the TGI with NCI/ADR-RES ovarian and with SF-539 CNS was more than 100 µM each time.
On to `O=[N+]([O-])/C(Cl)=C(/C(Cl)=C(Cl)Cl)N1CCCCC1`, for which the TGI with 786-0 renal was found to be 23.4 µM; in the assay on EKVX NSCLC it was 39.7 µM; in the assay on KM12 colon, 27.6 µM; in the assay with M14 melanoma, 23.3 µM; in the assay with MALME-3M melanoma, 11.6 µM; in the assay with MDA-MB-435, 20.8 µM. Moreover, the results for the TGI in the assay with NCI-H226 lung, with NCI/ADR-RES ovarian and in the assay on SF-539 CNS were 34.1 µM, 19.1 µM and 31.9 µM, respectively.
`Nc1c(S(N)(=O)=O)cc(S(N)(=O)=O)cc1S(N)(=O)=O`: the TGI in the assay on 786-0 renal, in the assay with BT-549 breast, with EKVX NSCLC, with KM12 colon, in the assay on M14 melanoma and in the assay on MALME-3M melanoma was more than 100 µM each time. Also, the TGI with MDA-MB-435, in the assay with NCI-H226 lung and with NCI/ADR-RES ovarian was more than 100 µM each time.
